Laboratory results taken from patent US20240116985A1, “STAPLED PEPTIDES AND METHODS THEREOF” (priority 2020, published 2024).
Values after ≈ are worked out from the molar mass of the structure shown. Like-named read-outs stand apart in the source and are kept apart here.

Columns and labels:
[1] = target: T1, full-length beta-Catenin (Uniprot ID P35222) (Homo sapiens, UniProt P35222); experiment: Fluorescence polarization IC50 (beta-catenin / 5FAM-TCF4 10-53 competition); format: binding
T1 construct: 10 nM full-length beta-Catenin (Uniprot ID P35222)
T1 sequence (P35222 1-781): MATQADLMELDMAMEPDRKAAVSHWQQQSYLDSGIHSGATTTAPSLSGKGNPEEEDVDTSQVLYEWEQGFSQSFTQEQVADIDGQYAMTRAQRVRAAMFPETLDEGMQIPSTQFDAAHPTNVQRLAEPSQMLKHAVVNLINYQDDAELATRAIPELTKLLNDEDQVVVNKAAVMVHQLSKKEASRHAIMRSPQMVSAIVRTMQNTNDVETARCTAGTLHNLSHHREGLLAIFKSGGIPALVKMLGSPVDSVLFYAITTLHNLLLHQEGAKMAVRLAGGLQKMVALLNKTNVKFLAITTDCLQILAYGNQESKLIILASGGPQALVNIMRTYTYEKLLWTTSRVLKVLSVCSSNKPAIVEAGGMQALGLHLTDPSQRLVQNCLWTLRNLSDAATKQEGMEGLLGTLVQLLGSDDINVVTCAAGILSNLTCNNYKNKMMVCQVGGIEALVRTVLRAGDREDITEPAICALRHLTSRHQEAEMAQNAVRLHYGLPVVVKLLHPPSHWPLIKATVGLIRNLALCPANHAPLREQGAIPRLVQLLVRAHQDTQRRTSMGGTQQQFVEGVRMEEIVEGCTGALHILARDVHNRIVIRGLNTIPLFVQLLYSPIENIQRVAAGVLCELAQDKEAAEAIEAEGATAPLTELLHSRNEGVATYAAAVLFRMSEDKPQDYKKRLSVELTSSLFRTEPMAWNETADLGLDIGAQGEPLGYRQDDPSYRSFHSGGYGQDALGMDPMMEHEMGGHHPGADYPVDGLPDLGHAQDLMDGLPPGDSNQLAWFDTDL

[2] = CHI Log D procedure; format: physicochemical; settings: for CHI Log D: pH 7.4; for chromatographic logD: pH 7.4, CHI Log D
[3] = Solubility in PBS; format: physicochemical
How it was run: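 Read-out is the HPLC peak area of the supernatant from ultracentrifuged PBS solution, scaled against a 50 μM peptide DMSO injection; value reported as [(PBS area)/(DMSO area)]*50 uM.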

[4] = fluorescence polarization, read-out: beta-Catenin FP IC50

IC50 [1, 4] | IC50 ([1]; read-out: FP EC50) | CHI Log D [2] | Solubility [3] | chromatographic logD [2] | Solubility ([3]; Solubility (uM)) | Structure (SMILES)
131 nM | 131 nM | 2.698 | 43 µM (≈ 74.9 µg/mL) |  |  | CC[C@H](C)[C@@H]1NC(=O)[C@H](CC(=O)O)NC(=O)[C@]2(CC=CCCCC3(CCCC=CCCCCCC[C@@](C)(C(=O)N[C@@H](Cc4ccccc4)C(=O)N[C@@H](Cc4csc5ccccc45)C(N)=O)NC(=O)[C@H](CC(N)=O)NC(=O)[C@H](Cc4ccccc4)NC(=O)[C@H](C)NC(=O)[C@H](C)NC(=O)[C@H](CCC(=O)O)NC(=O)[C@H](CC(=O)O)NC3=O)NC1=O)CCCN2C(C)=O (stereo partly drawn) [I-714, Ac-PL3-Asp-Ile-B5-Asp-Glu-Ala-Ala-Phe-Asn-S8-Phe-BztA-NH2]
60.5 nM | 60.5 nM | 2.762 | 25 µM (≈ 43.5 µg/mL) |  |  | CC[C@H](C)[C@@H]1NC(=O)[C@H](CC(=O)O)NC(=O)[C@]2(CC=CCCCC3(CCCC=CCCCCCC[C@@](C)(C(=O)N[C@@H](Cc4ccccc4)C(=O)N[C@@H](Cc4csc5ccccc45)C(N)=O)NC(=O)[C@H](CC(N)=O)NC(=O)[C@H](Cc4ccccc4)NC(=O)[C@H](C)NC(=O)[C@H](C)NC(=O)[C@H](CCC(=O)O)NC(=O)[C@H](CC(=O)O)NC3=O)NC1=O)CCCN2C(C)=O (stereo partly drawn) [I-715, Ac-PL3-Asp-Ile-B5-Asp-Glu-Ala-Ala-Phe-Asn-S8-Phe-BztA-NH2]
91 nM | 91 nM | 2.622 | 50 µM (≈ 87.4 µg/mL) |  |  | CC(=O)N1CCC[C@]12CC=CCCCC1(CCCC=CCCCCCC[C@@](C)(C(=O)N[C@@H](Cc3ccsc3)C(=O)N[C@@H](Cc3csc4ccccc34)C(N)=O)NC(=O)[C@H](CC(N)=O)NC(=O)[C@H](Cc3ccccc3)NC(=O)[C@H](C)NC(=O)[C@H](C)NC(=O)[C@H](CCC(=O)O)NC(=O)[C@H](CC(=O)O)NC1=O)NC(=O)[C@H](CC(C)C)NC(=O)[C@H](CC(=O)O)NC2=O (stereo partly drawn) [I-716, Ac-PL3-Asp-Leu-B5-Asp-Glu-Ala-Ala-Phe-Asn-S8-3Thi-BztA-NH2]
39 nM | 39 nM | 2.694 | 35 µM (≈ 61.1 µg/mL) |  |  | CC(=O)N1CCC[C@]12CC=CCCCC1(CCCC=CCCCCCC[C@@](C)(C(=O)N[C@@H](Cc3ccsc3)C(=O)N[C@@H](Cc3csc4ccccc34)C(N)=O)NC(=O)[C@H](CC(N)=O)NC(=O)[C@H](Cc3ccccc3)NC(=O)[C@H](C)NC(=O)[C@H](C)NC(=O)[C@H](CCC(=O)O)NC(=O)[C@H](CC(=O)O)NC1=O)NC(=O)[C@H](CC(C)C)NC(=O)[C@H](CC(=O)O)NC2=O (stereo partly drawn) [I-717, Ac-PL3-Asp-Leu-B5-Asp-Glu-Ala-Ala-Phe-Asn-S8-3Thi-BztA-NH2]
82 nM | 82 nM | 2.765 | 38 µM (≈ 66.9 µg/mL) |  |  | CC(=O)N1CCC[C@]12CC=CCCCC1(CCCC=CCCCCCC[C@@](C)(C(=O)N[C@@H](Cc3ccsc3)C(=O)N[C@@H](Cc3csc4ccccc34)C(N)=O)NC(=O)[C@H](CC(N)=O)NC(=O)[C@H](Cc3ccccc3)NC(=O)[C@H](C)NC(=O)[C@H](C)NC(=O)[C@H](CCC(=O)O)NC(=O)[C@H](CC(=O)O)NC1=O)NC(=O)[C@H](CC(C)(C)C)NC(=O)[C@H](CC(=O)O)NC2=O (stereo partly drawn) [I-718, Ac-PL3-Asp-Npg-B5-Asp-Glu-Ala-Ala-Phe-Asn-S8-3Thi-BztA-NH2]
38 nM | 38 nM | 2.818 | 28 µM (≈ 49.3 µg/mL) |  |  | CC(=O)N1CCC[C@]12CC=CCCCC1(CCCC=CCCCCCC[C@@](C)(C(=O)N[C@@H](Cc3ccsc3)C(=O)N[C@@H](Cc3csc4ccccc34)C(N)=O)NC(=O)[C@H](CC(N)=O)NC(=O)[C@H](Cc3ccccc3)NC(=O)[C@H](C)NC(=O)[C@H](C)NC(=O)[C@H](CCC(=O)O)NC(=O)[C@H](CC(=O)O)NC1=O)NC(=O)[C@H](CC(C)(C)C)NC(=O)[C@H](CC(=O)O)NC2=O (stereo partly drawn) [I-719, Ac-PL3-Asp-Npg-B5-Asp-Glu-Ala-Ala-Phe-Asn-S8-3Thi-BztA-NH2]
75 nM | 75 nM | 2.665 | 33 µM (≈ 57.7 µg/mL) |  |  | CC[C@H](C)[C@@H]1NC(=O)[C@H](CC(=O)O)NC(=O)[C@]2(CC=CCCCC3(CCCC=CCCCCCC[C@@](C)(C(=O)N[C@@H](Cc4ccsc4)C(=O)N[C@@H](Cc4csc5ccccc45)C(N)=O)NC(=O)[C@H](CC(N)=O)NC(=O)[C@H](Cc4ccccc4)NC(=O)[C@H](C)NC(=O)[C@H](C)NC(=O)[C@H](CCC(=O)O)NC(=O)[C@H](CC(=O)O)NC3=O)NC1=O)CCCN2C(C)=O (stereo partly drawn) [I-720, Ac-PL3-Asp-Ile-B5-Asp-Glu-Ala-Ala-Phe-Asn-S8-3Thi-BztA-NH2]
46 nM | 46 nM | 2.722 | 28 µM (≈ 48.9 µg/mL) |  |  | CC[C@H](C)[C@@H]1NC(=O)[C@H](CC(=O)O)NC(=O)[C@]2(CC=CCCCC3(CCCC=CCCCCCC[C@@](C)(C(=O)N[C@@H](Cc4ccsc4)C(=O)N[C@@H](Cc4csc5ccccc45)C(N)=O)NC(=O)[C@H](CC(N)=O)NC(=O)[C@H](Cc4ccccc4)NC(=O)[C@H](C)NC(=O)[C@H](C)NC(=O)[C@H](CCC(=O)O)NC(=O)[C@H](CC(=O)O)NC3=O)NC1=O)CCCN2C(C)=O (stereo partly drawn) [I-721, Ac-PL3-Asp-Ile-B5-Asp-Glu-Ala-Ala-Phe-Asn-S8-3Thi-BztA-NH2]
1130 nM |  |  |  | 2.52 | 27 µM (≈ 51 µg/mL) | CC[C@H](C)[C@@H]1NC(=O)[C@H](CC(=O)O)NC(=O)[C@]2(CC=CCCCC3(CCCC=CCCCCCC[C@@](C)(C(=O)N[C@@H](Cc4ccccc4)C(=O)N[C@@H](Cc4csc5ccccc45)C(=O)N[C@@H](CCC(N)=O)C(N)=O)NC(=O)[C@H](CCC(N)=O)NC(=O)[C@H](CC4CCCCC4)NC(=O)[C@H](C)NC(=O)[C@H](C)NC(=O)[C@H](CCC(=O)O)NC(=O)[C@H](CC(=O)O)NC3=O)NC1=O)CCCN2C(C)=O (stereo partly drawn) [I-722, Ac-PL3-Asp-Ile-B5-Asp-Glu-Ala-Ala-Cha-Gln-S8-Phe-BztA-Gln-NH2]
3830 nM |  |  |  | 2.58 | 29 µM (≈ 56.8 µg/mL) | CC[C@H](C)[C@@H]1NC(=O)[C@H](CC(=O)O)NC(=O)[C@]2(CC=CCCCC3(CCCC=CCCCCCC[C@@](C)(C(=O)N[C@@H](Cc4ccccc4)C(=O)N[C@@H](Cc4csc5ccccc45)C(=O)N[C@@H](CCC(N)=O)C(N)=O)NC(=O)[C@H](CCC(N)=O)NC(=O)[C@H](Cc4ccc(-c5ccccc5)cc4)NC(=O)[C@H](C)NC(=O)[C@H](C)NC(=O)[C@H](CCC(=O)O)NC(=O)[C@H](CC(=O)O)NC3=O)NC1=O)CCCN2C(C)=O (stereo partly drawn) [I-723, Ac-PL3-Asp-Ile-B5-Asp-Glu-Ala-Ala-Bip-Gln-S8-Phe-BztA-Gln-NH2]
114 nM |  |  |  | 2.42 | 34 µM (≈ 65 µg/mL) | CC[C@H](C)[C@@H]1NC(=O)[C@H](CC(=O)O)NC(=O)[C@]2(CC=CCCCC3(CCCC=CCCCCCC[C@@](C)(C(=O)N[C@@H](Cc4ccccc4)C(=O)N[C@@H](Cc4csc5ccccc45)C(=O)N[C@@H](CCC(N)=O)C(N)=O)NC(=O)[C@H](CCC(N)=O)NC(=O)[C@H](Cc4cccc(OC)c4)NC(=O)[C@H](C)NC(=O)[C@H](C)NC(=O)[C@H](CCC(=O)O)NC(=O)[C@H](CC(=O)O)NC3=O)NC1=O)CCCN2C(C)=O (stereo partly drawn) [I-724, Ac-PL3-Asp-Ile-B5-Asp-Glu-Ala-Ala-3OMeF-Gln-S8-Phe-BztA-Gln-NH2]
5000 nM |  |  |  | 2.61 | 42 µM (≈ 82.3 µg/mL) | CC[C@H](C)[C@@H]1NC(=O)[C@H](CC(=O)O)NC(=O)[C@]2(CC=CCCCC3(CCCC=CCCCCCC[C@@](C)(C(=O)N[C@@H](Cc4ccccc4)C(=O)N[C@@H](Cc4csc5ccccc45)C(=O)N[C@@H](CCC(N)=O)C(N)=O)NC(=O)[C@H](CCC(N)=O)NC(=O)[C@H](C(c4ccccc4)c4ccccc4)NC(=O)[C@H](C)NC(=O)[C@H](C)NC(=O)[C@H](CCC(=O)O)NC(=O)[C@H](CC(=O)O)NC3=O)NC1=O)CCCN2C(C)=O (stereo partly drawn) [I-725, Ac-PL3-Asp-Ile-B5-Asp-Glu-Ala-Ala-DipA-Gln-S8-Phe-BztA-Gln-NH2]
5000 nM |  |  |  | 2.34 | 43 µM (≈ 80.4 µg/mL) | CC[C@H](C)[C@@H]1NC(=O)[C@H](CC(=O)O)NC(=O)[C@]2(CC=CCCCC3(CCCC=CCCCCCC[C@@](C)(C(=O)N[C@@H](Cc4ccccc4)C(=O)N[C@@H](Cc4csc5ccccc45)C(=O)N[C@@H](CCC(N)=O)C(N)=O)NC(=O)[C@H](CCC(N)=O)NC(=O)[C@H](c4ccccc4)NC(=O)[C@H](C)NC(=O)[C@H](C)NC(=O)[C@H](CCC(=O)O)NC(=O)[C@H](CC(=O)O)NC3=O)NC1=O)CCCN2C(C)=O (stereo partly drawn) [I-726, Ac-PL3-Asp-Ile-B5-Asp-Glu-Ala-Ala-Phg-Gln-S8-Phe-BztA-Gln-NH2]
